Earlier results as cited in patent publication US6797722B2 (Sigma-Tau Industrie Farmaceutiche Riunite S.p.A., priority 2002, dated 2004).

Settings: oral route

SMILES: CCc1ccccc1-c1n[nH]c(-c2cccc(OC)c2)n1 [ST1959, 3-(2-ethylphenyl)-5-(3-methoxyphenyl)-1H-1,2,4-triazole]
- hepatic first-pass effect: rapid and extensive hepatic first-pass effect leading to the formation of inactive metabolites
